Each compound was assayed on Mycobacterium tuberculosis (assay: MMV: Screen against Mtb, single point, non replicating, at 25uM).
Format: functional
Compound `FC(F)(F)c1cccc(Nc2nc(-c3ccccc3)nc3ncccc23)c1` has an inhibition at 25 µM of 7.32%. Work on `CN1CCN(c2ncnc3c2[nH]c2ccc(Cl)cc23)CC1` yielded an inhibition at 25 µM of 1.91%. Work on `N#Cc1nc(Cc2cccc3ccccc23)oc1N1CCN(C(c2ccccc2)c2ccccc2)CC1` yielded an inhibition at 25 µM of 18.9%. In the case of `CNCCCNc1ccnc2cc(Cl)ccc12`, the inhibition at 25 µM is reported as 5.05%. `CN(C)c1ccc(C(O)(c2ccc(N(C)C)cc2)c2ccc(N(C)C)cc2)cc1` [METHYLROSANILINE] showed an inhibition at 25 µM of 59.8%. With `Cc1ccc(Cn2c(N3CCC(C(=O)NCc4cccs4)CC3)nc3ccccc32)cc1` the inhibition at 25 µM was 5.22%. `CN(C)c1ccc(N=Cc2ccc(N3CCOCC3)cc2)cc1` was tested, and the inhibition at 25 µM was -1.53%. In the case of `COc1ccc(/C=C2/SC(=Nc3ccccc3)NC2=O)cc1`, the inhibition at 25 µM is reported as 24.4%. Compound `CCOc1cccc2sc(N(Cc3cccnc3)C(=O)C3CCCCC3)nc12` has an inhibition at 25 µM of 14.3%. Compound `Cc1[nH]c(-c2ccc(F)cc2)cc1C(=O)NC1CCN(Cc2ccccc2)CC1` has an inhibition at 25 µM of 4%. `CCOc1ccc(/C=C/c2nc(=O)c3ccccc3o2)cc1` gave an inhibition at 25 µM of 12%. Work on `CCOc1cc(CNC(C)C(O)c2ccccc2)cc(Cl)c1OCC` (stereo not given) yielded an inhibition at 25 µM of 9.76%. In the case of `CCOc1cc(Cl)c(C(C)NC(=O)c2cccc(OC)c2)cc1OCC` (stereo not given), the inhibition at 25 µM is reported as 9.94%. `O=C(NC1CCCC1)c1ccc(N2CCC(NCc3cccc(C(F)(F)F)c3)CC2)cc1` showed an inhibition at 25 µM of 3.83%. With `CN(C)c1ccc(C=Cc2nc(=O)c3ccccc3o2)cc1` the inhibition at 25 µM was 20.4%. `COc1cccc(O)c1CN1CCC2(CCCN(Cc3ccc(F)cc3)C2)C1` (stereo not given) gave an inhibition at 25 µM of 16.4%. `OC(Cn1nnc2ccccc21)Cn1c2ccc(Br)cc2c2cc(Br)ccc21` (stereo not given) was tested, and the inhibition at 25 µM was -5.78%. Compound `O=C(Nc1ccsc1C(=O)NC1CCCCC1)c1ccc(F)cc1` has an inhibition at 25 µM of 20.6%. `CCOc1ccc(-c2nonc2NC(=O)c2cccc(C)c2)cc1OCC` showed an inhibition at 25 µM of 9.24%. For `CN1c2ccccc2N(C)C1c1ccc2c(c1)OCO2`, the inhibition at 25 µM was 14.5%. Work on `CN1CCN(c2nc(Nc3ccc(O)cc3)nc3ccccc23)CC1` yielded an inhibition at 25 µM of 6.46%. `O=C(NC1CCN(Cc2ccccc2)CC1)c1cc(C(=O)NC2CCN(Cc3ccccc3)CC2)cc(C(=O)NC2CCN(Cc3ccccc3)CC2)c1` was tested, and the inhibition at 25 µM was 3.44%. `CCOc1c(Cl)cc(CNCC(O)c2ccccc2)cc1OC` (stereo not given) showed an inhibition at 25 µM of 6.97%. For `CCCC(c1nnnn1C1CCCCC1)N1CCN(C(=O)c2ccco2)CC1` (stereo not given), the inhibition at 25 µM was 5.57%. `CCOC(=O)C1=C(C)N=c2sc(=Cc3cc(Cl)ccc3O)c(=O)n2C1c1ccc(OC)cc1` (stereo not given) showed an inhibition at 25 µM of 13.4%. With `CCOC(=O)C1=C(C)N=c2sc(=Cc3ccccc3O)c(=O)n2C1c1ccc(OC)c2ccccc12` (stereo not given) the inhibition at 25 µM was 24.4%. Compound `COc1ccc2c(=O)cc(C(Cl)(Cl)Cl)oc2c1` has an inhibition at 25 µM of 18.3%. `Cc1ccc(OCCCCCCNCCO)c(C)c1` showed an inhibition at 25 µM of 13%. For `COc1ccccc1CNC(=O)CCn1c(=O)[nH]c2ccsc2c1=O`, the inhibition at 25 µM was 0.338%. `CC(C)OCc1cc(CN2CCN(c3cccc(Cl)c3)CC2)c(O)c2ncccc12` gave an inhibition at 25 µM of 11.7%. In the case of `CCn1c(SCC(=O)Nc2cc(C(F)(F)F)ccc2Cl)nc2ccccc2c1=O`, the inhibition at 25 µM is reported as 16%. Work on `Nc1nc(Nc2cccc(F)c2)nc2ccccc12` yielded an inhibition at 25 µM of 9.12%. Compound `O=C(Cc1ccccc1)NC(c1ccc(Cl)cc1)c1c(O)ccc2ccccc12` (stereo not given) has an inhibition at 25 µM of -0.46%. With `CCN(CC)c1cc(C)c2cc(NC(=O)c3cccc(OC)c3)ccc2n1` the inhibition at 25 µM was 19.7%. `CCOC(=O)c1cnc2ccc(Cl)cc2c1NCCCN(C)C` was tested, and the inhibition at 25 µM was -0.993%. For `Cc1ccc(S(=O)(=O)c2c(COC(=O)c3cccc(C)c3)c(-c3ccccc3)nn2C)cc1`, the inhibition at 25 µM was 8.24%. For `O=C(Nc1ccc(Cl)cc1)N1CCN(c2ccc3nncn3n2)CC1`, the inhibition at 25 µM was -3.33%. In the case of `COc1ccc(CN2CCN(Cc3ccccc3)CC2)c(O)c1`, the inhibition at 25 µM is reported as -5.78%. Work on `Cc1cc(Nc2ccc3ccccc3c2)n2ncnc2n1` yielded an inhibition at 25 µM of 19.9%. With `COc1ccc(NC(=O)C2c3ccccc3C(=O)N(CC(C)C)C2c2cccs2)cc1` (stereo not given) the inhibition at 25 µM was 3.3%.

Each compound was assayed on Mycobacterium tuberculosis (assay: MMV: Screen against Mtb, single point, replicating, at 25uM).
Format: functional
For `FC(F)(F)c1cccc(Nc2nc(-c3ccccc3)nc3ncccc23)c1`, the inhibition at 25 µM was 1.43%. `CN1CCN(c2ncnc3c2[nH]c2ccc(Cl)cc23)CC1` was tested, and the inhibition at 25 µM was 23.9%. For `N#Cc1nc(Cc2cccc3ccccc23)oc1N1CCN(C(c2ccccc2)c2ccccc2)CC1`, the inhibition at 25 µM was 7.13%. `CNCCCNc1ccnc2cc(Cl)ccc12` showed an inhibition at 25 µM of 8.11%. Work on `CN(C)c1ccc(C(O)(c2ccc(N(C)C)cc2)c2ccc(N(C)C)cc2)cc1` [METHYLROSANILINE] yielded an inhibition at 25 µM of 28.6%. For `Cc1ccc(Cn2c(N3CCC(C(=O)NCc4cccs4)CC3)nc3ccccc32)cc1`, the inhibition at 25 µM was 44.4%. In the case of `CN(C)c1ccc(N=Cc2ccc(N3CCOCC3)cc2)cc1`, the inhibition at 25 µM is reported as 38.8%. In the case of `COc1ccc(/C=C2/SC(=Nc3ccccc3)NC2=O)cc1`, the inhibition at 25 µM is reported as 15.9%. With `CCOc1cccc2sc(N(Cc3cccnc3)C(=O)C3CCCCC3)nc12` the inhibition at 25 µM was 13.9%. With `Cc1[nH]c(-c2ccc(F)cc2)cc1C(=O)NC1CCN(Cc2ccccc2)CC1` the inhibition at 25 µM was 20.7%. Work on `CCOc1ccc(/C=C/c2nc(=O)c3ccccc3o2)cc1` yielded an inhibition at 25 µM of 18.9%. Compound `CCOc1cc(CNC(C)C(O)c2ccccc2)cc(Cl)c1OCC` (stereo not given) has an inhibition at 25 µM of 18.6%. In the case of `CCOc1cc(Cl)c(C(C)NC(=O)c2cccc(OC)c2)cc1OCC` (stereo not given), the inhibition at 25 µM is reported as 1.28%. Compound `O=C(NC1CCCC1)c1ccc(N2CCC(NCc3cccc(C(F)(F)F)c3)CC2)cc1` has an inhibition at 25 µM of 22.1%. Compound `CN(C)c1ccc(C=Cc2nc(=O)c3ccccc3o2)cc1` has an inhibition at 25 µM of 11.9%. With `COc1cccc(O)c1CN1CCC2(CCCN(Cc3ccc(F)cc3)C2)C1` (stereo not given) the inhibition at 25 µM was 18%. Compound `OC(Cn1nnc2ccccc21)Cn1c2ccc(Br)cc2c2cc(Br)ccc21` (stereo not given) has an inhibition at 25 µM of 4.62%. Work on `O=C(Nc1ccsc1C(=O)NC1CCCCC1)c1ccc(F)cc1` yielded an inhibition at 25 µM of 3.4%. Compound `CCOc1ccc(-c2nonc2NC(=O)c2cccc(C)c2)cc1OCC` has an inhibition at 25 µM of 2.34%. With `CN1c2ccccc2N(C)C1c1ccc2c(c1)OCO2` the inhibition at 25 µM was 9.63%. Compound `CN1CCN(c2nc(Nc3ccc(O)cc3)nc3ccccc23)CC1` has an inhibition at 25 µM of 8.7%. With `O=C(NC1CCN(Cc2ccccc2)CC1)c1cc(C(=O)NC2CCN(Cc3ccccc3)CC2)cc(C(=O)NC2CCN(Cc3ccccc3)CC2)c1` the inhibition at 25 µM was 7.92%. `CCOc1c(Cl)cc(CNCC(O)c2ccccc2)cc1OC` (stereo not given) was tested, and the inhibition at 25 µM was 11.9%. For `CCCC(c1nnnn1C1CCCCC1)N1CCN(C(=O)c2ccco2)CC1` (stereo not given), the inhibition at 25 µM was 20.4%. In the case of `CCOC(=O)C1=C(C)N=c2sc(=Cc3cc(Cl)ccc3O)c(=O)n2C1c1ccc(OC)cc1` (stereo not given), the inhibition at 25 µM is reported as -0.235%. In the case of `CCOC(=O)C1=C(C)N=c2sc(=Cc3ccccc3O)c(=O)n2C1c1ccc(OC)c2ccccc12` (stereo not given), the inhibition at 25 µM is reported as 4%. In the case of `COc1ccc2c(=O)cc(C(Cl)(Cl)Cl)oc2c1`, the inhibition at 25 µM is reported as 25.3%. In the case of `Cc1ccc(OCCCCCCNCCO)c(C)c1`, the inhibition at 25 µM is reported as 17.5%. `COc1ccccc1CNC(=O)CCn1c(=O)[nH]c2ccsc2c1=O` gave an inhibition at 25 µM of 9.93%. For `CC(C)OCc1cc(CN2CCN(c3cccc(Cl)c3)CC2)c(O)c2ncccc12`, the inhibition at 25 µM was 9.32%. `CCn1c(SCC(=O)Nc2cc(C(F)(F)F)ccc2Cl)nc2ccccc2c1=O` showed an inhibition at 25 µM of 2.95%. In the case of `Nc1nc(Nc2cccc(F)c2)nc2ccccc12`, the inhibition at 25 µM is reported as 13.4%. With `O=C(Cc1ccccc1)NC(c1ccc(Cl)cc1)c1c(O)ccc2ccccc12` (stereo not given) the inhibition at 25 µM was 12%. With `CCN(CC)c1cc(C)c2cc(NC(=O)c3cccc(OC)c3)ccc2n1` the inhibition at 25 µM was 18.7%. Compound `CCOC(=O)c1cnc2ccc(Cl)cc2c1NCCCN(C)C` has an inhibition at 25 µM of 2.59%. `Cc1ccc(S(=O)(=O)c2c(COC(=O)c3cccc(C)c3)c(-c3ccccc3)nn2C)cc1` showed an inhibition at 25 µM of 9.01%. With `O=C(Nc1ccc(Cl)cc1)N1CCN(c2ccc3nncn3n2)CC1` the inhibition at 25 µM was 12.8%. For `COc1ccc(CN2CCN(Cc3ccccc3)CC2)c(O)c1`, the inhibition at 25 µM was 0.392%. In the case of `Cc1cc(Nc2ccc3ccccc3c2)n2ncnc2n1`, the inhibition at 25 µM is reported as -2.52%. `COc1ccc(NC(=O)C2c3ccccc3C(=O)N(CC(C)C)C2c2cccs2)cc1` (stereo not given) showed an inhibition at 25 µM of 4.77%.
